In patent EP0795549A1, “Bis-aryloxy(amino)-triazinyl-oxy(amino)aryl derivatives, their preparation and their use as antiviral agents” (American Cyanamid Company, priority 1996, dated 1997):

What was measured:
FLU = test: viral plaque reduction assay, influenza; assay type: cell-based; conditions: Pre
RSV (A2) = test: viral yield reduction (growth inhibition) assay, RSV; assay type: cell-based, Respiratory Syncitial Virus
HSV1 (Patton) = test: viral plaque reduction assay, HSV1; assay type: cell-based, Herpes Simplex Virus; conditions: HSV1 (Patton), vero host cells
RSV A2 = assay type: in vivo, cotton rats; conditions: cotton rats, summary of Table 3
RSV [1] = test: time of addition: effect on viral protein synthesis in infected Vero cells; assay type: cell-based
Method: The time in the virus life-cycle when Example 1 exerts its effect was determined to increase understanding of the mechanism of action. This was accomplished by adding and removing the compound at various times relative to infection and assessing the effect on viral protein synthesis. Vero cells were infected on ice for 1 hour, unadsorbed virus was removed, and then the infected cells were incubated at 37°C for 18 hours (virus adsorption will occur on ice, but fusion will not proceed until the temperature is raised to 18°C or above). After the 18 hour incubation at 37°C (when the bulk of ongoing protein synthesis was directed by viral RNAs), ^35S-methionine was added for 2 hours, the cells were lysed, and the labeled proteins were analyzed on SDS-PAGE gels. The viral N, P, and M proteins were then evident. […] However, when the compound of Example 1 was added even after only 5 minutes incubation at 37°C, viral protein production was unimpeded. Therefore, the process inhibited was the fusion process or some closely succeeding step which is required for later viral gene expression.

HPIV3 = test: viral plaque reduction assay, HPIV3; assay type: cell-based, human parainfluenza virus type 3, strain Washington; conditions: HPIV3 WASH., VERO, Pre
HSV2 = test: viral plaque reduction assay, HSV2; assay type: cell-based, herpes simplex virus; conditions: Pre
CMV (Ad169) = test: viral plaque reduction assay, CMV; assay type: cell-based, Cytomegalovirus
RSV [2] = test: viral plaque reduction assay, RSV; assay type: cell-based, Respiratory Syncitial Virus

4,4'-Bis[4,6-di[3-aminophenyl-N,N-bis(2-carbamoyl-ethyl)sulfonylimino]-1,3,5-triazin-2-ylamino]-stilbene-2,2'-disulfonic acid, disodium salt [Example 1]
IC50 (µG/ml) viral plaque formation (FLU; FLU A1/FM/1/47, MDCK): >50 µg/mL | IC50 (µG/ml) viral plaque formation (FLU; FLU A2/HK/8/68, MDCK): >50 µg/mL | IC50 (µG/ml) viral plaque formation (FLU; FLU A2/JPN/305/57, MDCK): >50 µg/mL | IC50 (µG/ml) viral plaque formation (FLU; FLU A/Beij/32/92, MDCK): >20 µg/mL | IC50 (µG/ml) viral plaque formation (FLU; FLU A/Texas/36/91, MDCK): 5 µg/mL | IC50 (µG/ml) viral plaque formation (FLU; FLU B/Pana/45/90, MDCK): >20 µg/mL | IC50 µG/mL IN GROWTH […]/ HF (RSV (A2); HF host cells): 0.3 µg/mL | IC50 µG/mL IN GROWTH […]/ VERO (RSV (A2); vero host cells): 0.5 µg/mL | IC50µG/mL IN PLAQUE ASSAY HSV/ VER O (HSV1 (Patton)): 8 µg/mL | inhibition of RSV in vivo (summary in words) (RSV A2): inhibit RSV in vivo | viral protein synthesis (RSV [1]; 10 µg/ml added immediately after virus adsorption and before raising the incubation temperature to 37°C): fully prevented | viral protein production (RSV [1]; added after only 5 minutes incubation at 37°C): unimpeded | IC50 (µG/ml) viral plaque formation (HPIV3): 20 µg/mL | IC50 (µG/ml) viral plaque formation (HSV2; HSV2 12, VERO): >10 µg/mL | IC50 (µG/ml) viral plaque formation (HSV2; HSV2 333, VERO): 3 µg/mL | IC50 (µG/ml) viral plaque formation (HSV2; HSV2 MS, VERO): 5 µg/mL | IC50µG/mL IN PLAQUE ASSAY CMV/ HF (CMV (Ad169); CMV (Ad169), HF host cells): 7 µg/mL | IC50 (µG/ml) viral plaque formation (CMV (Ad169); HCMV Ad169, HF, Pre): 15 µg/mL | IC50 (µG/ml) viral plaque formation (RSV [2]; RSV 2B, VERO, Pre): 0.1 µg/mL | IC50 (µG/ml) viral plaque formation (RSV [2]; RSV 3A, VERO, Pre): 0.5 µg/mL | IC50 (µG/ml) viral plaque formation (RSV [2]; RSV 9320, VERO, Pre): 0.2 µg/mL | IC50µG/mL IN PLAQUE ASSAY RSV/ VERO (RSV [2]; RSV (A2), vero host cells): 0.3 µg/mL | IC50 (µG/ml) viral plaque formation (RSV [2]; RSV A2, HF, Post 2 hours): <3 µg/mL | IC50 (µG/ml) viral plaque formation (RSV [2]; RSV A2, HF, Pre): 0.4 µg/mL | IC50 (µG/ml) viral plaque formation (RSV [2]; RSV A2, MDBK, Pre): 0.4 µg/mL | IC50 (µG/ml) viral plaque formation (RSV [2]; RSV A2, SKNSH, Pre): 0.4 µg/mL | IC50 (µG/ml) viral plaque formation (RSV [2]; RSV A2, VERO, Post 2 hours): 0.3 µg/mL | IC50 (µG/ml) viral plaque formation (RSV [2]; RSV A2, VERO, Post 24 hours): 0.4 µg/mL | IC50 (µG/ml) viral plaque formation (RSV [2]; RSV A2, VERO, Pre (pretreatment)): 0.3 µg/mL | IC50 (µG/ml) viral plaque formation (RSV [2]; RSV LONG, VERO, Pre): 0.2 µg/mL | active against all RSV strains tested (plaque assays) (RSV [2]; all RSV strains tested): 0.1 to 0.7 µg/mL
